Measured values taken from US8354403B2, “Pyrrolidine derived beta 3 adrenergic receptor agonists” (Merck Sharp & Dohme Corp., priority 2009, dated 2013).
Where two headings read alike, the source gives them in different places. Each block holds one compound with its values, some of them ahead of it.

Target: T1, human β3 adrenergic receptor (Homo sapiens, UniProt P13945)
T1 construct: expressed in transfected cells; host or cells: Chinese hamster ovary (CHO) cells, stably transfected
Test: Beta-3 agonist in vitro functional assay: cAMP production (LANCE TR-FRET) in CHO cells stably transfected with the cloned β3 receptor
Type: cell-based
Description: Chinese hamster ovary (CHO) cells, stably transfected with the cloned β-adrenergic receptor (β1, β2 or β3) are harvested after 3 days of subculturing. Harvesting of cells is done with Enzyme-free Dissociation Media (Specialty Media). Cells are then counted and resuspended in assay buffer (Hank's Balanced salt solution supplemented with 5 mM HEPES, […]) containing a phosphodiesterase inhibitor (IBMX, 0.6 mM). The reaction is initiated by mixing 6,000 cells in 6 μL with 6 μL Alexa Fluor labeled cAMP antibody (LANCE™ kit) which is then added to an assay well containing 12 μL of compound (diluted in assay buffer to 2× final concentration). The reaction proceeds for 30 minutes at RT and is terminated by the addition of 24 ul detection buffer (LANCE™ kit). The assay plate is then incubated for 1 h at RT and time-resolved fluorescence measured on a Perkin Elmer Envision reader or equivalent. The unknown cAMP level is determined by comparing fluorescence levels to a cAMP standard curve.
The non-selective, full agonist β-adrenergic ligand isoproterenol is used at all three receptors to determine maximal stimulation. […] Data are analyzed using Microsoft Excel and Graphpad Prism or an internally developed data analysis software package.

[1] = Table 8, Beta-3 agonist in vitro functional assay, read-out: Human β3 agonist functional activity
[2] = Table 5, cAMP, CHO cells, read-out: Human β3 agonist functional activity
[3] = Table 9, Beta-3 agonist in vitro functional assay, read-out: Human β3 agonist functional activity
[4] = Table 10, Beta-3 agonist in vitro functional assay, read-out: Human β3 agonist functional activity
[5] = Table 12, human β3 functional activity given as ranges, read-out: Human β3 agonist functional activity
[6] = Table 11, cAMP, CHO cells, read-out: Human β3 agonist functional activity
[7] = Table 4, cAMP, CHO cells, read-out: Human β3 agonist functional activity

T1 sequence (P13945 whole entry): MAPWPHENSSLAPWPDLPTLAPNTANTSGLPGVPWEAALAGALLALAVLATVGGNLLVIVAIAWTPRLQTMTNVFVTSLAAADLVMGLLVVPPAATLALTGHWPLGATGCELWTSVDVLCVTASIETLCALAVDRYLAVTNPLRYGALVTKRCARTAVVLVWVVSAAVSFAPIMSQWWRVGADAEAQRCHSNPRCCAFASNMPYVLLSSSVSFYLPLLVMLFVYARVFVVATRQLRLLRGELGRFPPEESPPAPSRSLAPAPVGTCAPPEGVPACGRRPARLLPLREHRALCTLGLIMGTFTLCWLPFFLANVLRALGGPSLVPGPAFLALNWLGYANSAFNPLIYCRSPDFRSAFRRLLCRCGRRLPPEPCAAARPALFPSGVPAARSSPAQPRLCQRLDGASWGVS

EC50 (Table 13, human Beta-3 agonist functional activity given as range, read-out: Human β3 agonist functional activities): 0.001 to 0.0099 µM
SMILES: O=C(c1ccc(C[C@@H]2CC[C@H]([C@H](O)c3ccccc3)N2)c(Br)c1)N1CCC2(CCOC2=O)CC1 [Example 610]

EC50 [1]: 0.01 to 0.0999 µM
SMILES: O=C1CCC2(CCN(C(=O)c3ccc(C[C@@H]4CC[C@H]([C@H](O)c5ccccc5)N4)cc3)CC2)O1 [Example 273]

EC50 [2]: 0.1 to 0.999 µM
SMILES: O=C(c1ccc(C[C@@H]2CC[C@H]([C@H](O)c3ccccc3)N2)cc1)N1CCC(n2c(=O)[nH]c3cc(Cl)ccc32)CC1 [Example 75]

EC50 [1]: 0.1 to 0.999 µM
SMILES: O=C(c1ccc(C[C@@H]2CC[C@H]([C@H](O)c3ccccc3)N2)cc1)N1CCC2(CC1)CCN(c1ccccc1)C2=O [Example 254]

EC50 [2]: 0.1 to 0.999 µM
SMILES: Cc1nc(C2CCN(C(=O)c3ccc(C[C@@H]4CC[C@H]([C@H](O)c5ccccc5)N4)cc3)CC2)ns1 [Example 89]

EC50 [1]: 0.1 to 0.999 µM
SMILES: O=C(c1ccc(C[C@@H]2CC[C@H]([C@H](O)c3ccccc3)N2)cc1)N1CCC2(CC1)CC(c1ccc(F)cc1)CO2 (stereo partly drawn) [Example 310]

EC50 [3]: 0.01 to 0.0999 µM
SMILES: O=C(c1ccc(C[C@@H]2CC[C@H]([C@H](O)c3ccccc3)N2)cc1)N1CCN(Cc2n[nH]c3ncccc23)CC1 [Example 406]

EC50 [3]: 0.01 to 0.0999 µM
SMILES: Cn1nnc(CN2CCN(C(=O)c3ccc(C[C@@H]4CC[C@H]([C@H](O)c5ccccc5)N4)cc3)CC2)n1 [Example 401]

EC50 [4]: 0.001 to 0.0099 µM
SMILES: CC(C(=O)N1CC(O)(c2ccccc2)C1)N1CCN(C(=O)c2ccc(C[C@@H]3CC[C@H]([C@H](O)c4ccccc4)N3)cc2)CC1 (stereo partly drawn) [Example 474]

EC50 [1]: 0.001 to 0.0099 µM
SMILES: COc1ccc2c(c1)C(=O)CC1(CCN(C(=O)c3ccc(C[C@@H]4CC[C@H]([C@H](O)c5ccccc5)N4)cc3)CC1)S2(=O)=O [Example 339]

EC50 [2]: 0.01 to 0.0999 µM
SMILES: O=C(NC1CCN(C(=O)c2ccc(C[C@@H]3CC[C@H]([C@H](O)c4ccccc4)N3)cc2)CC1)OCc1ccccc1 [Example 68]

EC50 [3]: 0.01 to 0.0999 µM
SMILES: O=C(c1ccc(C[C@@H]2CC[C@H]([C@H](O)c3ccccc3)N2)cc1)N1CCN(Cc2nnn[nH]2)CC1 [Example 398]

EC50 [3]: 0.1 to 0.999 µM
SMILES: O=C(c1ccc(C[C@@H]2CC[C@H]([C@H](O)c3ccccc3)N2)cc1)N1CCN(c2ccc3c(c2)OCCO3)CC1 [Example 354]

EC50 [4]: 0.001 to 0.0099 µM
SMILES: CC(C(=O)N1CCC1)N1CCN(C(=O)c2ccc(C[C@@H]3CC[C@H]([C@H](O)c4ccccc4)N3)cc2)CC1 (stereo partly drawn) [Example 471]

EC50 [1]: 0.001 to 0.0099 µM
SMILES: COc1ccc2c(c1)C(=O)CC1(CCN(C(=O)c3ccc(C[C@@H]4CC[C@H]([C@H](O)c5ccccc5)N4)cc3)CC1)S2 [Example 328]

EC50 [5]: 0.1 to 0.999 µM
SMILES: CC(c1cccnn1)N1CCN(C(=O)c2ccc(CC3CCC(C(O)c4ccccc4)N3)cc2)CC1 (single isomer, unassigned) [Example 592]

EC50 [2]: 0.1 to 0.999 µM
SMILES: CNC(=O)c1ccccc1OC1CCN(C(=O)c2ccc(C[C@@H]3CC[C@H]([C@H](O)c4ccccc4)N3)cc2)CC1 [Example 157]

EC50 [4]: 0.01 to 0.0999 µM
SMILES: CNC(=O)C(C)N1CCN(C(=O)c2ccc(C[C@@H]3CC[C@H]([C@H](O)c4ccccc4)N3)cc2)CC1 (stereo partly drawn) [Example 435]

EC50 [2]: 0.1 to 0.999 µM
SMILES: O=C(c1ccc(C[C@@H]2CC[C@H]([C@H](O)c3ccccc3)N2)cc1)N1CCC(n2cnnc2)CC1 [Example 91]

EC50 [2]: 0.1 to 0.999 µM
SMILES: O=C(c1ccc(C[C@@H]2CC[C@H]([C@H](O)c3cccnc3)N2)cc1)N1CCC(S(=O)(=O)c2cccc(F)c2)CC1 [Example 131]

EC50 [6]: 0.01 to 0.0999 µM
SMILES: C[C@H]1CN(C(=O)c2ccc(C[C@@H]3CC[C@H]([C@H](O)c4ccccc4)N3)cc2)CCN1Cc1nc2ccccc2o1 [Example 531]

EC50 [2]: 0.01 to 0.0999 µM
SMILES: O=C(c1ccc(C[C@@H]2CC[C@H]([C@H](O)c3ccccc3)N2)cc1)N1CCC(S(=O)(=O)c2cc(F)ccc2F)CC1 [Example 140]

EC50 [4]: 0.01 to 0.0999 µM
SMILES: CC(C(=O)NC1CCS(=O)(=O)CC1)N1CCN(C(=O)c2ccc(C[C@@H]3CC[C@H]([C@H](O)c4ccccc4)N3)cc2)CC1 (stereo partly drawn) [Example 469]

EC50 [7]: 0.1 to 0.999 µM
SMILES: O=C(c1ccc(C[C@@H]2CC[C@H]([C@H](O)c3ccccc3)N2)cc1)N1CCc2oncc2C1 [Example 55]

EC50 (given as a range, cAMP, CHO cells, read-out: human β3 functional activity): 0.1 to 0.999 µM
SMILES: O=C(c1ccc(C[C@@H]2CC[C@H]([C@H](O)c3cccnc3)N2)cc1)N1CCC(n2cccn2)CC1 [Example 65, (R)-[(2R,5S)-5-(4-{[4-(1H-pyrazol-1-yl)-piperidin-1-yl]carbonyl}benzyl)pyrrolidine-2-yl](pyridin-3-yl)methanol]

EC50 [3]: 0.01 to 0.0999 µM
SMILES: O=C(c1ccc(C[C@@H]2CC[C@H]([C@H](O)c3ccccc3)N2)cc1)N1CCN(Cc2ccncn2)CC1 [Example 427]

EC50 [2]: 0.01 to 0.0999 µM
SMILES: COC(=O)c1csc(C2CCN(C(=O)c3ccc(C[C@@H]4CC[C@H]([C@H](O)c5ccccc5)N4)cc3)CC2)n1 [Example 88]

EC50 [4]: 0.01 to 0.0999 µM
SMILES: CC(C(=O)N1C[C@@H]2C[C@H]1CO2)N1CCN(C(=O)c2ccc(C[C@@H]3CC[C@H]([C@H](O)c4ccccc4)N3)cc2)CC1 (stereo partly drawn) [Example 500]

EC50 [2]: 0.1 to 0.999 µM
SMILES: O=C(c1ccc(C[C@@H]2CC[C@H]([C@H](O)c3ccccc3)N2)cc1)N1CCC(n2c(=O)[nH]c3ccccc32)CC1 [Example 74]

EC50 [1]: 0.1 to 0.999 µM
SMILES: CN1CCCC2(CCN(C(=O)c3ccc(C[C@@H]4CC[C@H]([C@H](O)c5ccccc5)N4)cc3)CC2)C1=O [Example 257]

EC50 [5]: 0.001 to 0.0099 µM
SMILES: O=C(c1ccc(C[C@@H]2CC[C@H]([C@H](O)c3ccccc3)N2)cc1)N1CCN(C2COc3cccnc32)CC1 (single isomer, unassigned) [Example 600]

EC50 [2]: 0.01 to 0.0999 µM
SMILES: O=C(OCc1ccccc1)C1CCN(C(=O)c2ccc(C[C@@H]3CC[C@H]([C@H](O)c4ccccc4)N3)cc2)CC1 [Example 119]

EC50 [2]: 0.001 to 0.0099 µM
SMILES: O=C(c1ccc(C[C@@H]2CC[C@H]([C@H](O)c3ccccc3)N2)cc1)N1CCC(S(=O)(=O)c2ccccc2F)CC1 [Example 132]

EC50 [1]: 0.01 to 0.0999 µM
SMILES: O=C1OC2(CCN(C(=O)c3ccc(C[C@@H]4CC[C@H]([C@H](O)c5ccccc5)N4)cc3)CC2)c2ccncc21 [Example 285]

EC50 [2]: 0.01 to 0.0999 µM
SMILES: O=C(c1ccc(C[C@@H]2CC[C@H]([C@H](O)c3ccccc3)N2)cc1)N1CCC(Cn2ncccc2=O)CC1 [Example 148]

EC50 [2]: 0.1 to 0.999 µM
SMILES: O=C(c1ccc(C[C@@H]2CC[C@H]([C@H](O)c3ccccc3)N2)cc1)N1CCC(Cn2ccnc2)CC1 [Example 142]

EC50 [4]: 0.1 to 0.999 µM
SMILES: CC(C(=O)NC1CCNC1=O)N1CCN(C(=O)c2ccc(C[C@@H]3CC[C@H]([C@H](O)c4ccccc4)N3)cc2)CC1 (stereo partly drawn) [Example 458]

EC50 [2]: 0.1 to 0.999 µM
SMILES: COC(=O)c1cc(OC2CCN(C(=O)c3ccc(C[C@@H]4CC[C@H]([C@H](O)c5ccccc5)N4)cc3)CC2)no1 [Example 159]

EC50 [2]: 0.01 to 0.0999 µM
SMILES: O=C(c1ccc(C[C@@H]2CC[C@H]([C@H](O)c3ccccc3)N2)cc1)N1CCC(S(=O)(=O)c2ccc(Cl)cc2)CC1 [Example 136]

EC50 [4]: 0.01 to 0.0999 µM
SMILES: CC(C(=O)N1CCc2ncccc2C1)N1CCN(C(=O)c2ccc(C[C@@H]3CC[C@H]([C@H](O)c4ccccc4)N3)cc2)CC1 (stereo partly drawn) [Example 507]

EC50 [1]: 0.1 to 0.999 µM
SMILES: O=C(c1ccc(C[C@@H]2CC[C@H]([C@H](O)c3cccnc3)N2)cc1)N1CCC2(CC1)SCc1ccccc12 [Example 301]

EC50 [4]: 0.1 to 0.999 µM
SMILES: CC(C(=O)NCc1nnc2n1CCC2)N1CCN(C(=O)c2ccc(C[C@@H]3CC[C@H]([C@H](O)c4ccccc4)N3)cc2)CC1 (stereo partly drawn) [Example 466]

EC50 [3]: 0.01 to 0.0999 µM
SMILES: O=C(c1ccc(C[C@@H]2CC[C@H]([C@H](O)c3ccccc3)N2)cc1)N1CCN(Cc2ccon2)CC1 [Example 393]

EC50 [5]: 0.001 to 0.0099 µM
SMILES: O=C1OCCC1N1CCN(C(=O)c2ccc(CC3CCC(C(O)c4ccccc4)N3)cc2)CC1 (single isomer, unassigned) [Example 603]

EC50 [2]: 0.1 to 0.999 µM
SMILES: O=C(c1ccc(C[C@@H]2CC[C@H]([C@H](O)c3ccccc3)N2)cc1)N1CCCCC1 [Example 67]

EC50 [3]: 0.01 to 0.0999 µM
SMILES: CCOc1cccnc1N1CCN(C(=O)c2ccc(C[C@@H]3CC[C@H]([C@H](O)c4ccccc4)N3)cc2)CC1 [Example 362]

EC50 [3]: 0.01 to 0.0999 µM
SMILES: CC(C)C(c1ccccn1)N1CCN(C(=O)c2ccc(C[C@@H]3CC[C@H]([C@H](O)c4ccccc4)N3)cc2)CC1 (stereo partly drawn) [Example 419]

EC50 [5]: 0.001 to 0.0099 µM
SMILES: CC1CC2(CCN(C(=O)c3ccc(CC4CCC(C(O)c5ccccc5)N4)cc3)CC2)C(=O)O1 (single isomer, unassigned) [Example 562]

EC50 [3]: 0.01 to 0.0999 µM
SMILES: COC(=O)c1ccccc1N1CCN(C(=O)c2ccc(C[C@@H]3CC[C@H]([C@H](O)c4ccccc4)N3)cc2)CC1 [Example 351]

EC50 [6]: 0.001 to 0.0099 µM
SMILES: O=C(c1ccc(C[C@@H]2CC[C@H]([C@H](O)c3ccccc3)N2)cc1)N1CCCN(c2nccn3ccnc23)CC1 [Example 552]

EC50 [2]: 0.01 to 0.0999 µM
SMILES: COc1ccc(CC2CCN(C(=O)c3ccc(C[C@@H]4CC[C@H]([C@H](O)c5ccccc5)N4)cc3)CC2)cc1F [Example 147]

EC50 [7]: 0.01 to 0.0999 µM
SMILES: O=C(c1ccc(C[C@@H]2CC[C@H]([C@H](O)c3ccccc3)N2)cc1)N1CCCC2(CCOC2=O)C1 (stereo partly drawn) [Example 40]

EC50 [6]: 0.1 to 0.999 µM
SMILES: C[C@H](c1ccccn1)N1CC2CC1CN2C(=O)c1ccc(C[C@@H]2CC[C@H]([C@H](O)c3ccccc3)N2)cc1 (stereo partly drawn) [Example 537]

EC50 [7]: 0.999 to 3 µM
SMILES: O=C(c1ccc(C[C@@H]2CC[C@H]([C@H](O)c3ccccc3)N2)cc1)N1CCc2onc(O)c2C1 [Example 53]
